Article PMC12395388 (Regulatory toxicology and pharmacology : RTP, 2024)
Like-named read-outs stand apart in the source and are kept apart here.

What was measured:
[1] = ref IARC (https://monographs.iarc.who.int/agents-classified-by-the-iarc/); cited from earlier work
[2] = test system: CHO, V79, L5178Y/Tk+/−, TK6, HepaRG cells; conditions: cited from earlier work
[3] = test system: Salmonella typhimurium TA1537; experiment: Preincubation Ames test, strain TA1537
[4] = test system: Salmonella typhimurium TA1535; experiment: Preincubation Ames test, strain TA1535; type: cell-based; conditions: for Mutagenic response in TA1535: any activation condition and preincubation time; for Effectiveness of time of preincubation for most effective S9: 30 vs 60 min; for Ames response when tested as an aqueous suspension: 60 min preincubation, TA1535; for Direct-acting mutagenicity in TA1535: no exogenous metabolic activation (no S9); for S9-mediated mutagenicity in TA1535: with S9 activation
[5] = test system: E. coli WP2 uvrA (pKM101); experiment: Preincubation Ames test, strain WP2 uvrA; type: cell-based, Escherichia coli; conditions: for Mutagenic response in WP2 uvrA (pKM101): any activation condition and preincubation time; for Effectiveness of time of preincubation for most effective S9: strain WP2 uvrA (pKM101), 30 vs 60 min
yeast = conditions: cited from earlier work
[6] = in vivo; cited from earlier work
[7] = test system: Salmonella typhimurium tester strains TA98, TA100, TA1535, and TA1537, and Escherichia coli strain WP2 uvrA (pKM101); experiment: Preincubation Ames test, five tester strains; type: cell-based; conditions: for Specificity for G:C or A:T target tester strains: G:C target: TA98, TA100, TA1535, TA1537, A:T target: WP2 uvrA (pKM101)
[8] = parent drug with nitrite; ref Ozhan and Alpertunga, 2003; cited from earlier work
[9] = Solubility in Ames test vehicles; type: physicochemical
Ames tester strains = conditions: cited from earlier work; for Ames response (all S9-mediated except where noted): published/posted results, ref representative Ames references of Table 2
[10] = species as in value; ref as given in Table 2 Notes; cited from earlier work
[11] = ref as given in Table 2 Notes (Kerklaan et al., 1981; Zeiger et al., 1972); cited from earlier work
[12] = published by FDA as of September 4, 2024, ref FDA, 2024a; cited from earlier work
Drosophila = conditions: cited from earlier work; for Recombination in Drosophila: ref Vogel and Nivard, 1993
[13] = PC1 most potent, PC5 least potent; ref FDA, 2024a; cited from earlier work
[14] = ref Wogan et al., 1975, cited from earlier work
[15] = test system: Salmonella typhimurium TA100; experiment: Preincubation Ames test, strain TA100; type: cell-based; conditions: for Effectiveness of time of preincubation for most effective S9: strain TA100, 30 vs 60 min; for S9-mediated mutagenicity in TA100: with S9 activation
E. coli WU3610 = conditions: ref Elespuru and Lijinsky, 1976; cited from earlier work
[16] = listed as N-nitroso-methylphenylamine
[17] = cell lines as named in the value, ref as given in Table 2 Notes
[18] = listed as 1-Methyl-4-nitrosopiperizine
[19] = listed as 1-methyl-4-nitrosopiperizine
[20] = ref Larimer et al., 1980, Mehta and Von Borstel, 1984

O=NN(c1ccccc1)c1ccccc1 [SM-11, N,N-Diphenylnitrous amide]
IARC classification [1]: Group 3

CN(N=O)c1ccccc1 [SM-6, N-Methyl-N-phenylnitrous amide]
Mutagenicity/genotoxicity in mammalian cells in vitro [2]: Mutagenic/genotoxic in yeast, TK6, HepaRG cells | Mutagenic response in TA1537 ([3]; any activation condition and preincubation time, listed as N-nitroso-methylphenylamine): positive | Effectiveness of time of preincubation for most effective S9 ([3]; strain TA1537, 30 vs 60 min): 60min = 30min | Effectiveness of hamster vs. rat S9s for each positive strain ([3]; strain TA1537, H = hamster liver S9, R = rat liver S9): H only | Mutagenic response in TA1535 [4, 16]: negative | Mutagenic response in TA1535 ([4]; listed as NMPA): not positive | Mutagenic response in WP2 uvrA (pKM101) [5, 16]: positive | Mutagenic response in WP2 uvrA (pKM101) ([5]; listed as NMPA): mutagenic | Effectiveness of time of preincubation for most effective S9 [5]: 60min = 30min | Mutagenicity/genotoxicity in yeast (yeast): Mutagenic/genotoxic in yeast, TK6, HepaRG cells

CCOC(CN(CC(OCC)OCC)N=O)OCC [SM-12, N,N-Bis(2,2-diethoxyethyl)nitrous amide]
Carcinogenicity in rats [6]: noncarcinogenic in rats | Mutagenic response in TA1535 [4]: only positive strain | More effective %S9 in S9 mix of more effective S9 (H or R) ([4]; strain TA1535, 10% vs 30% S9 in the S9 mix): 30% only | Effectiveness of time of preincubation for most effective S9 ([4]; strain TA1535): 60min = 30min | Effectiveness of hamster vs. rat S9s for each positive strain ([4]; strain TA1535, H = hamster liver S9, R = rat liver S9): H only | Specificity for G:C or A:T target tester strains [7]: positive only in G:C detecting strains

CNCCC(Oc1ccc(C(F)(F)F)cc1)c1ccccc1 (centres unmarked) [Fluoxetine]
Genotoxicity under nitrosating conditions [8]: genotoxic under nitrosating conditions

O=NN1CCN(c2cc3c(cc2F)c(=O)c(C(=O)O)cn3C2CC2)CC1 [NDSRI-24, 1-Cyclopropyl-6-fluoro-7-(4-nitrosopiperazin-1-yl)-4-oxoquinoline-3-carboxylic acid]
Solubility in test vehicles [9]: poorly soluble in all vehicles

CCN(CC)N=O [SM-2, N,N-Diethylnitrous amide]
Mutagenicity/genotoxicity in mammalian cells in vitro [2, 17]: mutagenic/genotoxic in CHO, L5178Y/Tk^+/−, V79, TK6, HepaRG cells | Ames response (all S9-mediated except where noted) (Ames tester strains): Positive; preincubation more sensitive | Mutagenicity in TGR assay [10]: Mutagenic in rat and mouse TGR, error-corrected sequencing | Mutagenicity in host-mediated assay [11]: Mutagenic | AI limit [12]: 26.5 ng/day | Recombination in Drosophila (Drosophila): recombinogen in Drosophila

Nc1nc2ncc(CN(N=O)c3ccc(C(=O)NC(CCC(=O)O)C(=O)O)cc3)nc2c(=O)[nH]1 (centres unmarked) [NDSRI-28, 2-[[4-[(2-Amino-4-oxo-3 H-pteridin-6-yl)methyl-nitrosoamino)benzoyl]amino]pentanedioic acid]
Ames response (all S9-mediated except where noted) (Ames tester strains): Positive | CPCA Potency Category (PC) [13]: PC4 | AI limit [12]: 1500 ng/day | Ames response when tested as an aqueous suspension [4]: d Weakly positive/equivocal when tested as an aqueous suspension: see text and Supplementary Material. | Ames response when tested as an aqueous suspension ([4]; listed as N-nitroso-folic acid): equivocal or weakly positive | Lung tumors in neonatal mouse cancer bioassay [14]: Weak positive for lung tumors in neonatal mouse assay ([Wogan et al., 1975]) | Lung tumors in neonatal mouse cancer bioassay ([14]; listed as N-nitroso-folic acid): induced lung tumors

CN1CCN(N=O)CC1 [SM-4, 1-Methyl-4-nitrosopiperazine]
Effectiveness of time of preincubation for most effective S9 [15]: 60min = 30min | S9-mediated mutagenicity in TA100 [15, 18]: strong S9-mediated mutagen | S9-mediated mutagenicity in TA100 [15, 19]: strongly positive | Mutagenicity/genotoxicity in mammalian cells in vitro [2, 17]: Mutagenic in yeast, Drosophila, V79 cells, host-mediated assay | Direct-acting mutagenicity in V79 cells ([2]; only summary results provided, ref Kuroki et al., 1977): does not appear to be a direct-acting mutagen | Mutagenicity in E. coli WU3610 (E. coli WU3610): not mutagenic in E. coli WU3610 | Ames response (all S9-mediated except where noted) (Ames tester strains): Positive | Ames response with human liver S9 (Ames tester strains; ref Sabadie et al., 1980): Ames positive with human liver S9 | CPCA Potency Category (PC) [13]: PC3 | AI limit [12]: 400 ng/day | Direct-acting mutagenicity in TA1535 [4]: a Equivocal direct-acting mutagen in TA1535. | Direct-acting mutagenicity in TA1535 [4, 18]: weakly positive direct-acting mutagen in two of four assays | Direct-acting mutagenicity in TA1535 [4, 19]: classified as ‘equivocal’ as a direct-acting mutagen | Effectiveness of time of preincubation for most effective S9 ([4]; strain TA1535): 60min = 30min | S9-mediated mutagenicity in TA1535 [4, 18]: strong S9-mediated mutagen | S9-mediated mutagenicity in TA1535 [4, 19]: strongly positive | Mutagenicity in Drosophila (Drosophila; ref Nix et al., 1980): Mutagenic in yeast, Drosophila, V79 cells, host-mediated assay | Recombination in Drosophila (Drosophila): recombinogen in Drosophila | Direct-acting mutagenicity in yeast (yeast; only summary results provided, ref Larimer et al., 1980): does not appear to be a direct-acting mutagen | Mutagenicity/genotoxicity in yeast (yeast; [20]): Mutagenic in yeast, Drosophila, V79 cells, host-mediated assay | Specificity for G:C or A:T target tester strains [7]: positive only in G:C detecting strains

CN(CCCC(=O)O)N=O [SM-7, 4-[Methyl(nitroso)amino] butanoic acid]
Mutagenicity/genotoxicity in mammalian cells in vitro [2, 17]: Mutagenic/genotoxic in yeast, TK6, HepaRG cells ([Mehta and Von Borstel, 1984]; [Li et al., 2022]; [Seo et al., 2023]) | CPCA Potency Category (PC) [13]: PC4 | AI limit [12]: 1500 ng/day | Mutagenicity/genotoxicity in yeast (yeast; [20]): Mutagenic/genotoxic in yeast, TK6, HepaRG cells ([Mehta and Von Borstel, 1984]; [Li et al., 2022]; [Seo et al., 2023])

Fc1ccc([C@@H]2CCNC[C@H]2COc2ccc3c(c2)OCO3)cc1 [Paroxetine]
Genotoxicity under nitrosating conditions [8]: Paroxetine genotoxic under nitrosating conditions ([Ozhan and Alpertunga, 2003])

CCCCN(CCCC)N=O [SM-9, N,N-Dibutylnitrous amide]
Effectiveness of time of preincubation for most effective S9 [15]: 30min ≥60min | Ames response (all S9-mediated except where noted) (Ames tester strains): Positive | IARC classification [1]: Group 2B | Effectiveness of time of preincubation for most effective S9 ([4]; strain TA1535): 60min = 30min | Effectiveness of time of preincubation for most effective S9 [5]: 60min ≥30min

CN(C)N=O [SM-1, N,N-Dimethylnitrous amide]
Effectiveness of time of preincubation for most effective S9 [15]: 60min >30min | Mutagenicity/genotoxicity in mammalian cells in vitro [2, 17]: mutagenic/genotoxic in CHO, V79, L5178Y/Tk^+/−, HepaRG cells | Ames response (all S9-mediated except where noted) (Ames tester strains): Positive; preincubation more sensitive | Mutagenicity in TGR assay [10]: Mutagenic in mouse and rat TGR | IARC classification [1]: Group 2A | Mutagenicity in host-mediated assay [11]: Mutagenic | AI limit [12]: 96 ng/day | Effectiveness of time of preincubation for most effective S9 ([4]; strain TA1535): 60min >30min | Effectiveness of time of preincubation for most effective S9 [5]: 60min = 30min | Recombination in Drosophila (Drosophila): recombinogen in Drosophila | Effect of length of preincubation on positive responses ([7]; 30 min vs 60 min, over all strains, listed as NDMA): benefited from a preincubation of 60 min compared with 30 min
